Measured values taken from US20240398822A1, “METHODS AND COMPOSITIONS FOR TREATING AND MANAGING ALZHEIMER'S DISEASE” (Pharmatrophix, Inc., priority 2021, published 2024).
Entries after “also recorded” stand apart in the source; their conditions may differ.

Tests used:
[1] = Stability study of capsules filled with 200 mg in blister strips; format: physicochemical; conditions: 200 mg (free base weight) capsules in PVC-PE-PVdC/Alu, ambient 15-25° C./20-60% RH
[2] = system: patients with mild to moderate Alzheimer's disease; assay: Phase IIa brain glucose metabolism (18F-FDG-PET); format: in vivo, human; conditions: for FDG-PET voxel (MCS) analysis, dose comparison: 400 mg versus 200 mg versus placebo
Protocol: The specific ^18F FDG-PET scan for early detection of AD is conducted at the first and final visits. Quantitative and qualitative estimates of the cerebral glucose rate may be done by using FDG-PET as evident metabolic reduction is already present in patients at early stages of Alzheimer's disease. ^18F FDG-PET scanning is an imaging biomarker for synaptic function. Analyses include anatomical, statistical or voxel-based regions of interest.
FDG-PET using statistical ROI measures derived from ADNI as described in the Chen et al. paper.
Areas showing less decline are highlighted in yellow. It is notable that these areas are relevant to areas that degeneration in AD. […] This method makes possible analysis of FDG-PET signal in a common three-dimensional sampling space with the MRI analysis for each subject thereby enhancing accuracy of FDG-PET analysis and allowing the combination of the two modalities for further analyses and the assessment of the spatial relationship between structural and functional degeneration over time. […] For this analysis, the drug treatment group contains subjects treated with either 200 or 400 mg doses.
FIGS. 56A-56C show FDG PET using group x time interaction patterns. In FIGS. 56A-56C, contrast estimate plots show the magnitude and direction of the interaction effects observed in the flexible factorial GLM.
Therefore, if the actual observed ratio of t-values is close to equivalent in the input map at a given p and k threshold, the MCS ratio and p-value will tend to support the null hypothesis of no drug effect.

[3] = system: subjects in SAD and MAD studies; assay: Phase 1 SAD/MAD safety; format: in vivo
Excerpt: The phase 1 study was placebo controlled and double blinded and included 52 subjects in SAD studies and 20 subjects in MAD studies.

[4] = Phase I (1b) cerebrospinal fluid (CSF) levels; format: in vivo; conditions: human, day 10, 600 mg b.i.d. oral, 8 subjects, read-out: Cmax in cerebrospinal fluid (CSF), arithmetic mean
[5] = system: amyloid based mice (L/S-APP) or tau based mice (PS19); conditions: published mouse studies, cited from earlier work
[6] = system: patients with mild to moderate Alzheimer's disease; assay: Phase IIa safety and tolerability (adverse events, vital signs, ECG, MRI, laboratory); format: in vivo, human; conditions: for subjects who discontinued the phase 2a trial due to AEs or SAEs: of 16 subjects in total; for course of the increase in eosinophil level: also where treatment was continued; for overall safety and tolerability: phase IIa
Excerpt: Safety monitoring included the full extent of phase 2 clinical and laboratory testing.
For all safety evaluations, only an overall ‘Safety’ population is described. This includes all patients who received at least one dose of medication and consider all patients according to the treatment they actually receive. Additionally, a PK population will be described for only patients receiving active study IMP.

[7] = Phase I (1b) systemic pharmacokinetics, 600 mg b.i.d. for 10 days; format: in vivo, human; conditions: for Cmax: human, plasma, po, 600 mg, 600 mg b.i.d. oral, 8 subjects, read-out: Cmax, systemic, arithmetic mean
Protocol: A phase 1b studied was conducted in 10 elderly normal subjects for the purpose of obtaining plasma and CSF coordinated drug levels and to further assess safety at a dose of 600 mg bid over a 10-day period. The study was double-blinded and placebo controlled with 8 subjects receiving drug.

[8] = 200 mg bid (N = 78), 26 weeks, safety population
[9] = 200 mg bid (N = 78), 26 weeks, safety population, listed as LM11A
[10] = 200 mg bid (N = 78), 26 weeks, safety population, listed as LM11A-31
[11] = 400 mg bid (N = 83), 26 weeks, safety population
[12] = 400 mg bid (N = 83), 26 weeks, safety population, listed as LM11A
[13] = 400 mg bid (N = 83), 26 weeks, safety population, listed as LM11A-31

## CC[C@H](C)[C@H](N)C(=O)NCCN1CCOCC1 [LM11A-31-BHS, Tris[(2S,3S)-2-amino-3-methyl-N-(2-morpholinoethyl)pentanamide] tetra(monohydrogensulfate), monosulfate]
[1]
  drug stability in capsules: good drug stability
[2]
  FDG-PET voxel (MCS) analysis, dose comparison: 400 mg effect is significant and significantly greater than the 200 mg effect
[2]; listed as LM11A-31
  FDG-PET voxel (MCS) analysis, dose comparison: The effect at the 400 mg dose is higher than that at the 200 mg dose
[2]; combined drug group, 6 month period
  FDG-PET statistical ROI decline, drug versus placebo: trend to less decline
[2]; daily treatment
  cerebral glucose rate compared to placebo or no treatment: reduction in the extent of ongoing decrease in cerebral glucose rate
[2]; flexible factorial GLM, p<0.05 and cluster size >100
  FDG-PET loss of SUVR signal, dose analysis: significant effect at both the 200 and 400 mg doses in slowing loss of SUVR signal
[2]; not statistically significant
  FDG-PET sROI, dose comparison: greater trend is observed at 400 compared to the 200 mg dose
[3]; in vivo
  deaths, SAEs, severe TEAEs, discontinuations because of an AE: no deaths, SAEs, severe TEAEs, and no subjects were discontinued because of an AE
  intensity of TEAEs: All TEAEs were mild
  laboratory results, physical examination, vital signs, ECG, C-SSRS: No clinically significant laboratory results, physical examination findings, vital signs, ECG findings, or positive scores
[3]; multiple doses
  subjects who experienced TEAEs: 7 of 16
  total TEAEs: 8
[3]; multiple doses, remaining 2 possibly (flatulence) or remotely (nocturia) related
  TEAEs considered unrelated to study drug: 6
[3]; single dose
  subjects who experienced a TEAE: 1 of 40
[3]; single dose, postural dizziness, possibly related
  total TEAEs: 1
[3]; single doses of 100, 300, 600 and 900 mg free base, multiple doses of 300 BID and 600 mg free base QD
  safety and tolerability: generally safe and well tolerated
[4]
  Cmax: 56 ng/mL
[5]; GFAP and CD68 staining
  effect on pathological tau, neurites, synapses and spines, astrocytes and microglia: inhibits levels of pathological tau, loss of neurites, loss of synapses and spines, activation of astrocytes (GFAP staining is less) and activation of microglia (CD68 staining is less)
[5]
  effect on synaptic function (LTP signal, EPSP slope in hippocampal slices): corrects synaptic function
[6]; 200 mg bd, safety population
  patients discontinued because of AEs: 2 patients
  patients discontinued because of serious AE: 0 patients
[6]; [8]
  AEs Leading To Discontinuation of Study IMP, % of patients: 6.4%
  AEs Leading To Discontinuation of Study IMP, freq (events): 5
  AEs Leading To Discontinuation of Study IMP, n (patients): 5
  Adverse events, Drug Relationship: Not Related, % of patients: 52.6%
  Adverse events, Drug Relationship: Not Related, freq (events): 85
  Adverse events, Drug Relationship: Not Related, n (patients): 41
  Adverse events, Drug Relationship: Related, freq (events): 15
  Adverse events, Drug Relationship: Related, n (patients): 12
  Adverse events, Intensity: Mild, freq (events): 86
  Adverse events, Intensity: Mild, n (patients): 40
  Adverse events, Intensity: Moderate, freq (events): 12
  Adverse events, Intensity: Moderate, n (patients): 11
  Adverse events, Intensity: Severe, freq (events): 2
  Adverse events, Intensity: Severe, n (patients): 2
  All Adverse Events, % of patients: 60.3%
  All Adverse Events, freq (events): 109
  All Adverse Events, n (patients): 47
  Serious AEs, % of patients: 2.6%
  Serious AEs, freq (events): 2
  Serious AEs, n (patients): 2
  Treatment Emergent Adverse Events (TEAEs), % of patients: 59.0%
  Treatment Emergent Adverse Events (TEAEs), freq (events): 100
  Treatment Emergent Adverse Events (TEAEs), n (patients): 46
[6]; 200 mg bid (N = 78), 26 weeks, safety population, listed as LM1 1A-31
  Adverse events, Intensity: Severe, % of patients: 6%
[6]; [9]
  Adverse events, Drug Relationship: Related, % of patients: 15.4%
  Adverse events, Intensity: Moderate, % of patients: 14.1%
  Adverse events, Intensity: Severe, % of patients: 2.6%
[6]; [10]
  Adverse events, Drug Relationship: Related, % of patients: 15%
  Adverse events, Intensity: Moderate, % of patients: 14%
  Adverse events, Intensity: Severe, % of patients: 3%
[6]; 200 mg bid group (N = 78)
  Pre-Treatment Signs and Symptoms (PTSS), % of patients: 10.3%
  Pre-Treatment Signs and Symptoms (PTSS), freq (events): 9
  Pre-Treatment Signs and Symptoms (PTSS), n (patients): 8
[6]; 200 mg group
  share of the 10 severe TEAEs: 20%
  subjects with GI side effects (diarrhea in most cases): approximately 8%
  subjects who discontinued the phase 2a trial due to AEs or SAEs: 2 subjects
[6]; 400 mg bd, safety population
  patients discontinued because of AEs: 8 patients
  patients discontinued because of serious AE: 3 patients
[6]; [11]
  AEs Leading To Discontinuation of Study IMP, % of patients: 18.1%
  AEs Leading To Discontinuation of Study IMP, freq (events): 20
  AEs Leading To Discontinuation of Study IMP, n (patients): 15
  Adverse events, Drug Relationship: Not Related, % of patients: 57.8%
  Adverse events, Drug Relationship: Not Related, freq (events): 150
  Adverse events, Drug Relationship: Not Related, n (patients): 48
  Adverse events, Drug Relationship: Related, freq (events): 23
  Adverse events, Drug Relationship: Related, n (patients): 13
  Adverse events, Intensity: Mild, freq (events): 119
  Adverse events, Intensity: Mild, n (patients): 46
  Adverse events, Intensity: Moderate, freq (events): 49
  Adverse events, Intensity: Moderate, n (patients): 24
  Adverse events, Intensity: Severe, freq (events): 5
  Adverse events, Intensity: Severe, n (patients): 5
  All Adverse Events, % of patients: 66.3%
  All Adverse Events, freq (events): 185
  All Adverse Events, n (patients): 55
  Serious AEs, % of patients: 8.4%
  Serious AEs, freq (events): 7
  Serious AEs, n (patients): 7
  Treatment Emergent Adverse Events (TEAEs), % of patients: 65.1%
  Treatment Emergent Adverse Events (TEAEs), freq (events): 173
  Treatment Emergent Adverse Events (TEAEs), n (patients): 54
[6]; [12]
  Adverse events, Drug Relationship: Related, % of patients: 15.7%
  Adverse events, Intensity: Moderate, % of patients: 28.9%
  Adverse events, Intensity: Severe, % of patients: 6.0%
[6]; [13]
  Adverse events, Drug Relationship: Related, % of patients: 15%
  Adverse events, Intensity: Moderate, % of patients: 29%
[6]; 400 mg bid group (N = 83)
  Pre-Treatment Signs and Symptoms (PTSS), % of patients: 9.6%
  Pre-Treatment Signs and Symptoms (PTSS), freq (events): 12
  Pre-Treatment Signs and Symptoms (PTSS), n (patients): 8
[6]; 400 mg group
  share of the 10 severe TEAEs: 50%
  subjects with GI side effects (diarrhea in most cases): approximately 35%
  subjects who discontinued the phase 2a trial due to AEs or SAEs: 11 subjects
[6]; 200 and 400 mg groups together
  subjects receiving treatment with eosinophilia reported as an adverse event: 10 subjects
[6]; AEs otherwise similar between placebo and drug groups
  adverse events, drug groups compared with placebo: higher rates in the drug group of nasopharyngitis, GI symptoms including diarrhea and transient, asymptomatic blood eosinophilia
[6]
  course of the increase in eosinophil level: declined to normal levels
[6]; listed as salt of Formula (II)
  course of the increase in eosinophil level: transient
[6]; any group, 26 weeks
  life-threatening (Grade 4) adverse events: no life-threatening (Grade 4) adverse events
[6]; during the visits
  heart rate and body temperature: no clinically significant changes
[6]; for some events statistically significant
  rate of several adverse events, 400 mg versus 200 mg: higher for the 400 mg group
[6]; in vivo
  MRI-based safety analysis: no drug related adverse outcomes including hemorrhage or edema; also recorded: no events that raised any concern about the drug safety
  safety laboratory and urine analysis: did not show any patterns of concern
[6]; 26 weeks
  overall safety and tolerability: no results raised any concerns about the safety
[6]; 26 weeks, listed as salt of Formula (II)
  overall safety and tolerability: no serious adverse events occurred that raised concerns about the tolerability of the drug
[6]; safety population
  12-lead ECG: no relevant changes; also recorded: No significant changes
  blood pressure: no relevant changes; also recorded: No significant changes
  vital signs: no relevant changes; also recorded: No significant changes
[6]; treatment group
  highest eosinophil level reached: ≤ 5000 per μl
[6]; verum group
  subjects with eosinophil counts transiently above 500 per μl: 73 subjects
[6]; week 4
  subjects with increased eosinophil value considered clinically significant: 11 subjects
[7]; 600 mg BID during 10 days
  linearity of pharmacokinetics: linear
[7]; day 1
  Cmax: 1270 ng/mL
[7]; day 10
  Cmax: 885 ng/mL
